In ChEMBL document CHEMBL6121018, “Targeting JNK3 for Alzheimer's disease: Design and synthesis of novel inhibitors with aryl group diversity utilizing wide pocket” (Eur J Med Chem, 2025):
Values belong to the compound of their own block, whether it stands above or below them.

What was measured:
in vitro [1] = conditions: human, plasma
Description: Stability in human plasma assessed as parent compound remaining at 60 mins

in vitro [2] = conditions: human, plasma; remark: listed apart in the source
Description: Stability in human plasma assessed as parent compound remaining at 30 mins

in vitro [3] = conditions: PAMPA
Description: Permeability coefficient of compound by PAMPA

Cortical neurone [4] = assay: (§1) Neuroprotective activity against amyloid beta (1 to 42 residues)-induced Sprague-Dawley rat primary cortical neurons assessed as cell viability at 10 uM pretreated with compound for 90 mins followed by amyloid beta (1 to 42 residues) induction for 24 hrs and measured on day 5 by MTT assay (reference value: 100%); conditions: 121.5 h, read-out: Activity
[5] = target: T1, Mitogen-activated protein kinase 10 (Homo sapiens, UniProt P53779); assay: Inhibition of JNK3 (unknown origin)
in vitro [6] = conditions: Sprague-Dawley, rat, primary cortical neurons
Description: Cytotoxicity against Sprague-Dawley rat Primary cortical neuron assessed as cell viability incubated for 24 hrs by MTT assay

[7] = target: T1, Mitogen-activated protein kinase 10; assay: Inhibition of JNK3 (unknown origin) using ATF as substrate in presence of [gamma-33P]ATP incubated for 40 mins by scintillation counter analysis
[8] = target: Mitogen-activated protein kinase 8 (Homo sapiens, UniProt P45983)
Description: Inhibition of JNK1 (unknown origin) using 33P-ATP as substrate incubated for 2 hrs by P81 filter-binding method

[9] = target: Mitogen-activated protein kinase 14 (Homo sapiens, UniProt Q16539)
Description: Inhibition of p38alpha (unknown origin) using 33P-ATP as substrate incubated for 2 hrs by P81 filter-binding method

[10] = target: Mitogen-activated protein kinase 9 (Homo sapiens, UniProt P45984)
Description: Inhibition of JNK2 (unknown origin) using 33P-ATP as substrate incubated for 2 hrs by P81 filter-binding method

[11] = target: Glycogen synthase kinase-3 alpha (Homo sapiens, UniProt P49840); assay: Inhibition of GSK3alpha (unknown origin) using 33P-ATP as substrate incubated for 2 hrs by P81 filter-binding method
[12] = target: Glycogen synthase kinase-3 beta (Homo sapiens, UniProt P49841); assay: Inhibition of GSK3beta (unknown origin) using 33P-ATP as substrate incubated for 2 hrs by P81 filter-binding method
in vitro [13] = conditions: human, liver microsomes
Cortical neurone [14] = assay: as §1, with “at 20” for “at 10”; assay type: functional; conditions: 121.5 h, time 7290 min, read-out: Activity

T1 sequence (P53779 whole entry): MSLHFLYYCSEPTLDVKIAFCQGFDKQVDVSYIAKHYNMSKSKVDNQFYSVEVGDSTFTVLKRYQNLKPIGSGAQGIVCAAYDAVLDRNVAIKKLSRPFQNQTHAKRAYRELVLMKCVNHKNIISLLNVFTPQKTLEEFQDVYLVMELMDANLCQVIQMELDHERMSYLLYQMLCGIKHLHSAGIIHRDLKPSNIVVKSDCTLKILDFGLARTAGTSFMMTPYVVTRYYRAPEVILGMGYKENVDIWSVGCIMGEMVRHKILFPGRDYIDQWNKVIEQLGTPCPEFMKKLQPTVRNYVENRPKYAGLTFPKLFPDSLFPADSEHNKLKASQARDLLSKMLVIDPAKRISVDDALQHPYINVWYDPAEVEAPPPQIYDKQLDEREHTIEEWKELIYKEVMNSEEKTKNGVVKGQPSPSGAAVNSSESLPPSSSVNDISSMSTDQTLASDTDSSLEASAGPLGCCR
Sequence of Mitogen-activated protein kinase 14 (Q16539 whole entry): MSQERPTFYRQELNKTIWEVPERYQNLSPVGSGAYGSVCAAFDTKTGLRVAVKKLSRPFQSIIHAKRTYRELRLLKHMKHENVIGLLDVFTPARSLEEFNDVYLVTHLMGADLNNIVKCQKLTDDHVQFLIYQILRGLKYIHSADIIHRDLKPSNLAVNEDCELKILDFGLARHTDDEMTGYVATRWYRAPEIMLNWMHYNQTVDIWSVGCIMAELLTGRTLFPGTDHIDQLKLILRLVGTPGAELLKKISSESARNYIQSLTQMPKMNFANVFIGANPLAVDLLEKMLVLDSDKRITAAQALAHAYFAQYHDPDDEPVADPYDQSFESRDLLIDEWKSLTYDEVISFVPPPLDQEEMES
Sequence of Mitogen-activated protein kinase 8 (P45983 whole entry): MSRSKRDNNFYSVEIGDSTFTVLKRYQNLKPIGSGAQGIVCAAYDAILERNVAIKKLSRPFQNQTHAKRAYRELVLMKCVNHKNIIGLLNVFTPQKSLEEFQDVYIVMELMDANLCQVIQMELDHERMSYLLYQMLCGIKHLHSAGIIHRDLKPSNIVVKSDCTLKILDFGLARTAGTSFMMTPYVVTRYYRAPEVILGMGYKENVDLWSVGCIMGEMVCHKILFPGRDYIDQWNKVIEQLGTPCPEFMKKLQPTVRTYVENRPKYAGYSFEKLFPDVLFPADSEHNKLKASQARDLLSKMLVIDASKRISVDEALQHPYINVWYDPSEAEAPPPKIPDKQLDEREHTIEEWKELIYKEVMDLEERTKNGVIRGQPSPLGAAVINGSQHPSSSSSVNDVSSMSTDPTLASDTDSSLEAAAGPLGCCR
Sequence of Glycogen synthase kinase-3 beta (P49841 whole entry): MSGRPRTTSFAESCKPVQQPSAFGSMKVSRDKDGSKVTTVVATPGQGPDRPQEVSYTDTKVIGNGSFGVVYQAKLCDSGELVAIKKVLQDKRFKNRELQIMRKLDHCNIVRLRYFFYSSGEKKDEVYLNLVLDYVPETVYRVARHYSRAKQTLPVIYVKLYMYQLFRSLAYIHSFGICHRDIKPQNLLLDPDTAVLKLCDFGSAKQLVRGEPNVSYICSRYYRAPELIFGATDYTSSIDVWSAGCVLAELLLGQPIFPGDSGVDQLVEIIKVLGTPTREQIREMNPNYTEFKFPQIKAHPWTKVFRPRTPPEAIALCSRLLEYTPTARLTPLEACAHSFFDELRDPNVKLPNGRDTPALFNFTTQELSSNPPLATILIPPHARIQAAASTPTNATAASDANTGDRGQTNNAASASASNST
Sequence of Mitogen-activated protein kinase 9 (P45984 whole entry): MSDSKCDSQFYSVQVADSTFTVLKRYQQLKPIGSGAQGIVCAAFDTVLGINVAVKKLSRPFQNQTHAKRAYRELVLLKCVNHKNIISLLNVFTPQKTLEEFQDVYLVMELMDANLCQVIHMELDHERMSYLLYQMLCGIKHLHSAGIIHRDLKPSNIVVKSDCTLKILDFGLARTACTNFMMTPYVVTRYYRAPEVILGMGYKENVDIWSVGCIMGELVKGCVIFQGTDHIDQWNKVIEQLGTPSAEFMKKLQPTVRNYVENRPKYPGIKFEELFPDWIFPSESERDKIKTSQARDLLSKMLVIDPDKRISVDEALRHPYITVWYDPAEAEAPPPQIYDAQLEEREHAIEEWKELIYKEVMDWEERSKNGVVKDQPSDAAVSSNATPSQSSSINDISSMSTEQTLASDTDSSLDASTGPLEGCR
Sequence of Glycogen synthase kinase-3 alpha (P49840 whole entry): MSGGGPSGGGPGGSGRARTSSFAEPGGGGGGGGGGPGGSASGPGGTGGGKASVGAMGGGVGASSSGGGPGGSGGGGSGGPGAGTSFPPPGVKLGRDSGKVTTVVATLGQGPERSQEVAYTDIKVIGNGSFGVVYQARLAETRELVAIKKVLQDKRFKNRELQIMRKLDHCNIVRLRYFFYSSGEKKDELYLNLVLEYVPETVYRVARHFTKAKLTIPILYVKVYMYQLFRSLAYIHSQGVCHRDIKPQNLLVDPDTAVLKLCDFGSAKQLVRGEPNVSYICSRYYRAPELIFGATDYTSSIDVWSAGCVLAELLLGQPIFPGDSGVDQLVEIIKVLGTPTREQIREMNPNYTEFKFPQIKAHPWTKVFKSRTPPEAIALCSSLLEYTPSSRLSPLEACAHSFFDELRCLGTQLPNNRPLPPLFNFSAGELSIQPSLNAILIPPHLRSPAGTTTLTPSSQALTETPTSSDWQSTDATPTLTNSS

remaining at 1 h (in vitro [1]): 90%
remaining at 0.5 h (in vitro [2]): 95%
Compound: CCOC(=O)[C@H](CCc1ccccc1)N[C@@H](C)C(=O)N1CCC[C@H]1C(=O)O

remaining at 1 h (in vitro [13]): 20.3%
Compound: COc1ccc(CCN(C)CCCC(C#N)(c2ccc(OC)c(OC)c2)C(C)C)cc1OC (stereo not drawn)

IC50 [7]: 8330 nM
Compound: CCOC(=O)c1nn(-c2ccnc(Nc3ccc(N4CCC(N(C)C)CC4)cc3)n2)cc1/C=C/c1cccc(Br)c1

Continued, compound first:

Compound: CC(=O)[C@H]1CC[C@H]2[C@@H]3CCC4=CC(=O)CC[C@]4(C)[C@H]3CC[C@]12C [PROGESTERONE]
Papp (in vitro [3]): 40.7 ×10⁻⁶ cm/s

Compound: N#CCc1cc(-c2ccc(Cl)c(Cl)c2)n(-c2ccnc(N[C@H]3CCN(C(=O)C4CC4)C3)n2)n1
viability at 10 µM (Cortical neurone [4]): 14%
IC50 [5]: 227 nM
viability at 24 h (in vitro [6]): 103%

Compound: CN(C)C1CCN(c2ccc(Nc3nccc(-n4cc(/C=C/c5ccccc5)c(C(N)=O)n4)n3)cc2)CC1
viability at 24 h (in vitro [6]): 102%
IC50 [7]: 96 nM

Compound: NC(=O)c1nn(-c2ccnc(N[C@H]3CCCN(C(=O)C4CC4)C3)n2)cc1/C=C/c1ccccc1
IC50 [8]: 80 nM
IC50 [9]: Not_active
IC50 [10]: 450 nM
IC50 [11]: 35 nM
IC50 [12]: 14 nM

Compound: CN1CCN(c2ccc(Nc3nccc(-n4cc(/C=C/c5ccccc5)c(C(N)=O)n4)n3)cc2)CC1
viability at 24 h (in vitro [6]): 104%
IC50 [7]: 276 nM

Compound: Oc1ccc(/C=C/c2cc(O)cc(O)c2)cc1 [RESVERATROL]
viability at 20 µM (Cortical neurone [14]): 85%
